Results reported in patent publication US20110091570A1, “Compositions and Devices for Antisepsis and Anticoagulation” (priority 2008, published 2011).
Where “and” joins values, the source holds several entries; their conditions need not be identical. Identical values can stand only once.

Key:
infected injuries = settings: applied intravenously [Ref. 1]; cited from earlier work
citrate blood [1] = experiment: International normalized ratio (INR); assay type: biochemical, human; settings: Example 7, 0.25 IE heparin
Protocol: (§1) Whole blood was taken from 11 volunteers and enriched with trisodium citrate (0.3 mL of a 0.106 molar solution per 3 mL whole blood) (S-Monovette®, Sarstedt, Nümbrecht, Germany). Commercial coagulation tests (as described in Example 6) were performed with the following samples: […]

Antithrombin III = Antithrombin III in citrate blood; assay type: biochemical, human; settings: Example 7, 0.25 IE heparin
Protocol: as §1

citrate blood [2] = experiment: Activated partial thromboplastin time (aPTT), Pathromtin SL test; assay type: biochemical, human
Protocol: (§2) Whole blood was taken from volunteers and enriched with trisodium citrate (0.3 mL of a 0.106 molar solution per 3 mL whole blood) (S-Monovette®, Sarstedt, Nümbrecht, Germany). Routine coagulation tests were performed on the following samples:
(§3) The following commercial coagulation tests were performed according to the prescription of the manufacturer: prothrombin time (PT) was determined using Thromborel® S test (Dade Behring GmbH, Marburg, Germany); activated partial thromboplastin time (aPTT) was determined using Pathromtin* SL test (Dade Behring GmbH, Marburg, Germany); and thrombin time (TT) was determined using BC Thrombin Reagent test (Dade Behring GmbH, Marburg, Germany).
(§4) Whole blood was taken from a single volunteer and enriched with trisodium citrate (0.3 mL of a 0.106 molar solution per 3 mL whole blood) (S-Monovette®, Sarstedt, Nümbrecht, Germany). Portions of 1.8 mL citrate blood were mixed with 0.2 mL NCT in 0.9% saline. The following final (after dilution in blood) NCT concentrations were tested separately: 1% (55 mM); 0.5% (27.5 mM); 0.25% (13.75 mM); 0.1% (5.5 mM); 0.05% (2.75 mM); 0.025% (1.375 mM); and 0.01% (0.55 mM). A control without NCT was performed in parallel. The following commercial coagulation tests were performed according to the prescription of the manufacturer: prothrombin time (PT) was determined using Thromborel® S test (Dade Behring GmbH, Marburg, Germany), activated partial thromboplastin time (aPTT) was determined using Pathromtin* SL test (Dade Behring GmbH, Marburg, Germany); thrombin time (TT) was determined using BC Thrombin Reagent test (Dade Behring GmbH, Marburg, Germany); and fibrinogen was determined using Multifibren* U test (Dade Behring GmbH, Marburg, Germany).
as §1

D-Dimer = D-Dimer in citrate blood; assay type: biochemical, human; settings: Example 7, 0.25 IE heparin
Protocol: as §1

citrate blood [3] = experiment: Thrombin time (TT), BC Thrombin Reagent test; assay type: biochemical, human; settings: Example 7, 0.25 IE heparin
Protocol: as §2, §3, §4, §1

Fibrinogen = target: T1, Fibrinogen (Homo sapiens, UniProt P02671+P02675+P02679); experiment: Fibrinogen, Multifibren U test; assay type: biochemical; settings: Example 7, 0.25 IE heparin
T1 construct: from tissue; host or cells: citrated whole blood of volunteers
T1 sequence (P02671 20-629 limits assumed): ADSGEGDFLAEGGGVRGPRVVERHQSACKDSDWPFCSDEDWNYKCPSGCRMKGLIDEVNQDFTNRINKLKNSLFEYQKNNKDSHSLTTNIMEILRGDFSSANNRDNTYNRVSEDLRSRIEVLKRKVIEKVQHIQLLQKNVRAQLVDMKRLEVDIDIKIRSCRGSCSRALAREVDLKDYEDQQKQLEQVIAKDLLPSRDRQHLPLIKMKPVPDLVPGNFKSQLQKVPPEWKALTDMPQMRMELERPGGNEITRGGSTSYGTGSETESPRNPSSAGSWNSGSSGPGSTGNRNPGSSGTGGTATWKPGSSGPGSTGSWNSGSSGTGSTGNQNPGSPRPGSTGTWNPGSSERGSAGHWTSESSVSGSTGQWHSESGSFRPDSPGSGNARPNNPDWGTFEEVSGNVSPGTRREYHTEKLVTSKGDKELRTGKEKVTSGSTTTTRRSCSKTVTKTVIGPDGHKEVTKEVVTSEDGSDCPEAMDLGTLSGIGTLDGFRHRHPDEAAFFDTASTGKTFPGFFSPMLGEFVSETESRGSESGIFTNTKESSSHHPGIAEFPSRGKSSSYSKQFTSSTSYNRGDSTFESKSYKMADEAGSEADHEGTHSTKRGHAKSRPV
T1 sequence (P02675 31-491): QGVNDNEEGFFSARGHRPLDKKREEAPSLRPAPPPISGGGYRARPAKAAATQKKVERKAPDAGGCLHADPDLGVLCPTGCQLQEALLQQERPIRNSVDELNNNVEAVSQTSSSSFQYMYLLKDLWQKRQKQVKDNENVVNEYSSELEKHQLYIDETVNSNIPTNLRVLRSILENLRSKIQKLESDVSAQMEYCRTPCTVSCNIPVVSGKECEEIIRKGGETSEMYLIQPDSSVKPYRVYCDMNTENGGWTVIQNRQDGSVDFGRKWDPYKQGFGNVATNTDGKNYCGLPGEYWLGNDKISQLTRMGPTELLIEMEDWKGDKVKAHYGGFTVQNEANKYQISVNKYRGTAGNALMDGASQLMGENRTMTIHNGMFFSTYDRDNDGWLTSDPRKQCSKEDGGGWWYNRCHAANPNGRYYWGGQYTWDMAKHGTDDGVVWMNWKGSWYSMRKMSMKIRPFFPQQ
T1 sequence (P02679 27-453): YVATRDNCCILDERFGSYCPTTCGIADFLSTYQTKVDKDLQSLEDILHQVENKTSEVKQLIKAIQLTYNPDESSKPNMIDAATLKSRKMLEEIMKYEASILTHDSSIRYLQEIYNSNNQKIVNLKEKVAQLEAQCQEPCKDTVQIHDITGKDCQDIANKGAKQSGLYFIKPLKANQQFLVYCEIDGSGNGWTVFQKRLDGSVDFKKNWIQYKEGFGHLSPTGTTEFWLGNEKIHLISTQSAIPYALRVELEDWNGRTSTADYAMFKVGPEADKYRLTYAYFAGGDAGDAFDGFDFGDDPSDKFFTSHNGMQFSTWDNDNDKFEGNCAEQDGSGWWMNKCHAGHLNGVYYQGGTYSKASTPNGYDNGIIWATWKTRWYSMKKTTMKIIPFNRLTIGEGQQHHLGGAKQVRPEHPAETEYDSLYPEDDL
Protocol: as §4, §1

citrate blood [4] = experiment: Prothrombin time (PT), Thromborel S test; assay type: biochemical, human; settings: Example 7, 0.25 IE heparin
Protocol: as §2, §3, §4, §1

| Molecule | side effects of intravenous application (infected injuries) | International normalized ratio (INR) (citrate blood [1]; individual subjects 1-11) | International normalized ratio (INR), mean value (citrate blood [1]; mean of 11 subjects) | Antithrombin III (Antithrombin III; individual subjects 1-11) | Antithrombin III, mean value (Antithrombin III; mean of 11 subjects) [%] | activated partial thromboplastin time (citrate blood [2]; Example 5, citrate blood plus 0.25 IE heparin, increased from 36) [s] | Activated partial thromboplastin time (aPTT) (citrate blood [2]; Example 7, 0.25 IE heparin, individual subjects 1-11) | Activated partial thromboplastin time (aPTT), mean value (citrate blood [2]; Example 7, 0.25 IE heparin, mean of 11 subjects) [s] | D-Dimer (D-Dimer; individual subjects 1-11) | D-Dimer, mean value (D-Dimer; mean of 11 subjects) [µg/L] | Thrombin time (TT) (citrate blood [3]; individual subjects) [s] | Thrombin time (TT), mean value (citrate blood [3]; mean of 11 subjects) [s] | Fibrinogen (Fibrinogen; individual subjects 1-11) | Fibrinogen, mean value (Fibrinogen; mean of 11 subjects) [mg/dL] | Prothrombin time (PT) (citrate blood [4]; individual subjects 1-11) | Prothrombin time (PT), mean value (citrate blood [4]; mean of 11 subjects) [%] |
| --- | --- | --- | --- | --- | --- | --- | --- | --- | --- | --- | --- | --- | --- | --- | --- | --- |
| Cc1ccc(S(=O)(=O)[N-]Cl)cc1.[Na+] [chloramine T] | severe side effects such as pericardial and lung edema | – | – | – | – | – | – | – | – | – | – | – | – | – | – | – |
| heparin [reference compound] | – | 1.2 (6×) and 1.3 (2×) and 1.1 (2×) and 1.4 | 1.2 | 93% and 79% and 99% and 83% (2×) and 81% (2×) and 88% and 113% and 75% and 94% | 88.1 | 56 | 283 s and 187 s and 135 s and 177 s and 375 s and 300 s and 400 s and 216 s and 284 s and 195 s and 169 s | 247.4 | 217 µg/L and 199 µg/L and 353 µg/L and 146 µg/L and 76 µg/L and 183 µg/L and 285 µg/L and 159 µg/L and 150 µg/L and 203 µg/L and 157 µg/L | 193.5 | 400 | 400.0 | 214 mg/dL and 155 mg/dL and 313 mg/dL and 153 mg/dL and 234 mg/dL and 236 mg/dL and 379 mg/dL and 309 mg/dL and 259 mg/dL and 283 mg/dL and 249 mg/dL | 253.1 | 66% and 58% and 89% (2×) and 62% and 74% and 54% and 69% and 78% and 68% and 72% | 70.8 |
